Experimental data: US20080311138A1 (priority 2004, published 2008)
No end group written: not given here.

How the values were obtained:
[1] = test system: tetanus toxoid (TT); design: species or system mice (C57/BL6); conditions: mouse, in vivo
[2] = test system: tetanus toxin; design: species or system mice (C57/BL6); conditions: mouse, in vivo
[3] = test system: TT; design: species or system mice (C57/BL6); conditions: mouse, in vivo
[4] = circulating GLP-1; inactivated by N-terminal cleavage by DPP-IV; cited from earlier work
[5] = test system: VIP; conditions: in man; cited from earlier work

Row | Substance | anti-TT serum IgA response (GMT) [1] | paralysis after tetanus toxin challenge [2] | survivors after tetanus toxin challenge [2] | range of anti-TT IgG titer [3] | half life [4] | VIP agonist activity [5]
1 | GLP-1 (HDRHAGTTSDVSSYGAAKAWVKGRG; listed as Homo sapiens) | 959 | no sign of paralysis | 8/8 | 16,384-131,072 | several minutes | –
2 | VIP 2-28: Gastrointestinal peptide, residues 2-28 of Vasoactive Intestinal Peptide (SDAVFTDNYTRLRKQMAVKKYLNSILN; ends and bridges not checked; UniProt P01282 126-152, looked up, fragment) | – | – | – | – | – | full VIP agonist
